Data set [1] can be described thus: Aqueous solubility by laser nephelometry. In kind it is physicochemical. The conditions noted are these: for solubility compared with the 3-substituted isoxazol-4-yls of the present invention: comparative solubility; for solubility at 30 min: kinetic from dmso stock, 1% DMSO, 30 minute incubation at 25° C., range 1.6-100. The protocol:
Test compounds prepared in DMSO were screened in duplicate over a range of concentrations (1.6-100 ug/mL) in different aqueous media (for example pH2 or pH6.5 buffers which are relevant to the stomach and upper regions of the small intestine). Test compounds were serially diluted in 100% DMSO ranging from 10-0.16 mg/mL. These diluted compounds were then added to test plates (UV Star Griener 96 well plates) containing assay buffers with a further 1:100 dilution keeping a constant 1% DMSO concentration across the plate.

For the next data set, the system named is RSV A2. Description: RSV antiviral CPE assay in HEp2 cells (MTT). It counts as cell-based, respiratory syncytial virus. The conditions noted are these: for activity compared with the 3-substituted isoxazol-4-yls of the present invention: comparative RSV activity; for EC50: human respiratory syncytial virus, HEp-2, 120 h, HEp2 cells, RSV A2 moi ~0.01, 5 days, CPE by MTT. The protocol:
Compounds of the invention were tested for their antiviral activity against respiratory syncytial virus. Cytopathic effect (CPE) assays were performed essentially as described in the literature (see for example Watanabe et al, 1994, J. Virological Methods, 48:257). Serial dilutions of the test compounds were made in 96 well plates. HEp2 cells (1.0×10^4 cells/well) were infected with RSV at a low multiplicity of infection (e.g. RSV A2 at an moi of ˜0.01) and added to plates to assess antiviral activity. Uninfected HEp2 cells were used to assess compound cytotoxicity. Assays were incubated for 5 days at 37° C. in a 5% CO2 atmosphere. The extent of CPE was determined via metabolism of the vital dye 3-(4,5-dimethylthiaxol-2-yl)-2,5-diphenyltetrazolium bromide (MTT). MTT (1 mg/ml) was added to each well and plates incubated for 2 hours incubation at 37° C. Wells were aspirated, iso-propanol (200 μL) was added and absorbance values read at 540/650 nm. Compound concentrations that inhibited CPE by 50% (EC50) and developed cytotoxicity (CC50) were calculated using non-linear regression analysis. The CC50 values of the compounds tested were determined to be >5000 nM.

[2] abbreviates: pH 2, simulated gastric fluid, pH2 buffer, read-out: Solubility at pH2.
Setting [3] is: pH 6.5, aqueous buffer, pH6.5 buffer, read-out: Solubility at pH6.5.

≈ marks a conversion by molar mass, not a printed value. Read-outs that look alike come from different tables or passages of the source. Some results are limits rather than exact numbers.

Results on eleven compounds are retold here after US8796303B2, “Imidazo[2,1-G][1,7]naphthyridines for treating respiratory syncytial virus infections” (Biota Scientific Management Pty Ltd., priority 2010, dated 2014).

Turning to `O=C(c1ccno1)N1CCN2C(=O)c3cccnc3CC12c1ccc(Cl)cc1` (stereo not drawn) [Compound 1-100, reference compound], in data set [1], the “solubility compared with the 3-substituted isoxazol-4-yls of the present invention” value is “less soluble”. In addition, in the data set with RSV A2, the “activity compared with the 3-substituted isoxazol-4-yls of the present invention” value is given as “less active” and the concentration for a half-maximal effect (EC50) amounted to 0.56 µM.

Turning to `Cc1nocc1C(=O)N1CCN2C(=O)c3ncccc3CC12C1CCCCC1` (stereo not drawn) [Compound 11, 10a-cyclohexyl-1-[(3-methyl-1,2-oxazol-4-yl)carbonyl]-2,3,10,10a-tetrahydroimidazo[2,1-g][1,7]naphthyridin-5(1H)-one], the solubility at 30 min in data set [1] (setting [2]) and in data set [1] (setting [3]) was greater than 0.1 mg/mL in each case. The same compound showed an EC50 with RSV A2 of 0.07 µM.

Take `O=C(c1conc1C(F)(F)F)N1CCN2C(=O)c3ncccc3CC12c1ccc(Cl)cc1` (stereo not drawn) [Compound 13, 10a-(4-chlorophenyl)-1-{[3-(trifluoromethyl)-1,2-oxazol-4-yl]carbonyl}-2,3,10,10a-tetrahydroimidazo[2,1-g][1,7]naphthyridin-5(1H)-one]: the solubility at 30 min in data set [1] (setting [2]) and in data set [1] (setting [3]) was 0.05 to 0.1 mg/mL (≈ 108 to 216 µM) throughout. It took 0.007 µM to reach a half-maximal effect in the data set on RSV A2 (EC50).

For `Cc1cc(C23Cc4cccnc4C(=O)N2CCN3C(=O)c2conc2C)ccc1F` (stereo not drawn) [Compound 6, 10a-(4-fluoro-3-methylphenyl)-1-[(3-methyl-1,2-oxazol-4-yl)carbonyl]-2,3,10,10a-tetrahydroimidazo[2,1-g][1,7]naphthyridin-5(1H)-one], the solubility at 30 min was 0.025 to 0.05 mg/mL (≈ 61.5 to 123 µM) in data set [1] (setting [2]) and 0.05 to 0.1 mg/mL (≈ 123 to 246 µM) in data set [1] (setting [3]). This compound also registered an EC50 with RSV A2 of 0.0064 µM.

On to `O=C(c1ccno1)N1CCN2C(=O)c3ccccc3CC12c1ccc(Cl)cc1` (stereo not drawn) [Compound 1-025, reference compound], for which the “solubility compared with the 3-substituted isoxazol-4-yls of the present invention” value in data set [1] is given as “less soluble”. The solubility at 30 min in data set [1] (setting [2]) is 0.0031 to 0.0063 mg/mL (≈ 7.87 to 16 µM). Further, the solubility at 30 min in data set [1] (setting [3]) fell in the range of 0.0031 to 0.0063 mg/mL (≈ 7.87 to 16 µM). Also, in the data set on RSV A2, the “activity compared with the 3-substituted isoxazol-4-yls of the present invention” value is listed as “less active” and the concentration for a half-maximal effect (EC50) was 1.71 µM.

Regarding `O=C(c1ccno1)N1CCN2C(=O)c3cccc(F)c3CC12c1ccc(Cl)cc1` (stereo not drawn) [Compound 1-088, reference compound], in data set [1], the “solubility compared with the 3-substituted isoxazol-4-yls of the present invention” value was “less soluble”. The solubility at 30 min in data set [1] (setting [2]) is 0.0031 to 0.0063 mg/mL (≈ 7.53 to 15.3 µM). The solubility at 30 min in data set [1] (setting [3]) was in the range of 0.0031 to 0.0063 mg/mL (≈ 7.53 to 15.3 µM). Further, in the data set on RSV A2, the “activity compared with the 3-substituted isoxazol-4-yls of the present invention” value is reported as “less active” and the EC50 was determined as 0.267 µM.

On to `Cc1nocc1C(=O)N1CCN2C(=O)c3nccnc3CC12c1ccc(F)cc1` (stereo not drawn) [Compound 5, 5a-(4-fluorophenyl)-6-[(3-methyl-1,2-oxazol-4-yl)carbonyl]-5a,6,7,8-tetrahydroimidazo[1′,2′:1,6]pyrido[3,4-b]pyrazin-10(5H)-one], for which the solubility at 30 min in data set [1] (setting [2]) and in data set [1] (setting [3]) was greater than 0.1 mg/mL throughout. Besides, a half-maximal effect with RSV A2 (EC50) was put at 0.0276 µM.

In the case of `Cc1nocc1C(=O)N1CCN2C(=O)c3nccnc3CC12c1ccc(Cl)cc1` (stereo not drawn) [Compound 1, 5a-(4-chlorophenyl)-6-[(3-methyl-1,2-oxazol-4-yl)carbonyl]-5a,6,7,8-tetrahydroimidazo[1′,2′:1,6]pyrido[3,4-b]pyrazin-10(5H)-one], the solubility at 30 min in data set [1] (setting [2]) and in data set [1] (setting [3]) was 0.05 to 0.1 mg/mL (≈ 122 to 244 µM) throughout. The EC50 in the data set on RSV A2 came to 0.0063 µM.

On to `O=C(c1ccon1)N1CCN2C(=O)c3cccc(F)c3CC12c1ccc(Cl)cc1` (stereo not drawn) [Compound 1-086, reference compound], for which the “solubility compared with the 3-substituted isoxazol-4-yls of the present invention” value in data set [1] is “less soluble”. Besides, the solubility at 30 min in data set [1] (setting [2]) is less than 0.0016 mg/mL. For the same compound, the solubility at 30 min in data set [1] (setting [3]) is less than 0.0016 mg/mL. In the data set on RSV A2, the “activity compared with the 3-substituted isoxazol-4-yls of the present invention” value is on record as “less active” and the EC50 is 0.175 µM.

In the case of `Cc1oncc1C(=O)N1CCN2C(=O)c3ncccc3CC12c1ccc(F)cc1` (stereo not drawn) [Compound A, reference compound], the “drop in activity against the 3-substituted isoxazol-4-yl compound of example 4” value in the data set with RSV A2 (RSV A2 antiviral activity, compared with example 4) is “ten-fold drop in activity”. This compound also yielded an EC50 in the data set with RSV A2 of 0.276 µM.

In the case of `Cc1nocc1C(=O)N1CCN2C(=O)c3ncccc3C[C@@]12c1ccc(Cl)cc1` (single isomer, unassigned) [Compound 2B], the EC50 with RSV A2 turned out to be 5 µM.
